According to ChEMBL document CHEMBL1201862, “PubChem BioAssay data set” (2004):
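1) Cells in 96-well plates. 2) Compound, 48 h, 5 concentrations. 3) Linear interpolation between surrounding doses. 4) Unreached endpoint = highest concentration. GI50 is the concentration that inhibits growth by half.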 Calls of active or inactive are those of the source. Cut-off read from the data, not from the text of the source: active = GI50 up to about 1.1 µM and inactive = higher.

What was measured:
Assay in all cases: NCI-60 cell line screen, 48 h
RPMI-8226 = system: RPMI-8226
EKVX = system: EKVX
Malme-3M = system: Malme-3M
SNB-19 = system: SNB-19
RXF 393 = system: RXF 393
DU-145 = system: DU-145
OVCAR-3 = system: OVCAR-3
SF-539 = system: SF-539
MDA-N = system: MDA-N
OVCAR-4 = system: OVCAR-4
SK-MEL-28 = system: SK-MEL-28
K562 = system: K562
SF-295 = system: SF-295
BT-549 = system: BT-549
HCT-116 = system: HCT-116
M14 = system: M14
HCT-15 = system: HCT-15
CCRF-CEM = system: CCRF-CEM
LOX IMVI = system: LOX IMVI

Row | Structure (SMILES) | GI50 (RPMI-8226) | GI50 (EKVX) | GI50 (Malme-3M) | GI50 (SNB-19) | GI50 (RXF 393) | GI50 (DU-145) | GI50 (OVCAR-3) | GI50 (SF-539) | GI50 (MDA-N) | GI50 (OVCAR-4) | GI50 (SK-MEL-28) | GI50 (K562) | GI50 (SF-295) | GI50 (BT-549) | GI50 (HCT-116) | GI50 (M14) | GI50 (HCT-15) [µM] | GI50 (CCRF-CEM) | GI50 (LOX IMVI)
1 | N#Cc1c(NC(=O)CCC(=O)O)ccc2ccccc12 | > 100 µM (inactive) | > 100 µM (inactive) | > 100 µM (inactive) | > 100 µM (inactive) | > 100 µM (inactive) | > 100 µM (inactive) | > 100 µM (inactive) | > 100 µM (inactive) | > 100 µM (inactive) | > 100 µM (inactive) | > 100 µM (inactive) | > 100 µM (inactive) | > 100 µM (inactive) | > 100 µM (inactive) | > 100 µM (inactive) | > 100 µM (inactive) | > 100 |  | 
2 | CC(=O)OCc1cc(=O)n2c([nH]c3ccccc32)c1C#N |  | 72.3 µM (inactive) | 89.1 µM (inactive) | 80.2 µM (inactive) | 59.3 µM (inactive) | 68.7 µM (inactive) | 43.2 µM (inactive) | > 100 µM (inactive) | > 100 µM (inactive) | 1.63 µM (inactive) | 82.6 µM (inactive) | 65.9 µM (inactive) | 58.3 µM (inactive) | > 100 µM (inactive) | 51.3 µM (inactive) | 61.8 µM (inactive) | 21.8 | 19.3 µM (inactive) | 68.7 µM (inactive)
3 | Clc1cc2nc(C3CCCO3)[nH]c2cc1Cl (stereo unspecified) | 72.8 µM (inactive) | 87.5 µM (inactive) | > 100 µM (inactive) | > 100 µM (inactive) | 66.5 µM (inactive) |  | 32.5 µM (inactive) | > 100 µM (inactive) | 20.1 µM (inactive) | 46.8 µM (inactive) | 78 µM (inactive) | 38.5 µM (inactive) | 57.1 µM (inactive) | 26.2 µM (inactive) | 39.2 µM (inactive) | 72.9 µM (inactive) | 31.6 | 68.4 µM (inactive) | 35.4 µM (inactive)
4 | CCOC(=O)CCC(NC(=O)c1ccc(Oc2nc3ccc(C(F)(F)F)cc3nc2-c2ccccc2)cc1)C(=O)OCC (stereo unspecified) | > 100 µM (inactive) | 12.9 µM (inactive) | 14.2 µM (inactive) | 12.7 µM (inactive) | 15.7 µM (inactive) | > 100 µM (inactive) | 30.8 µM (inactive) | 3.01 µM (inactive) | > 100 µM (inactive) | 6.22 µM (inactive) | > 100 µM (inactive) | > 100 µM (inactive) | 12.2 µM (inactive) |  | 25.6 µM (inactive) | 67.6 µM (inactive) | > 100 | > 100 µM (inactive) | 28.6 µM (inactive)
5 | O=C(O)c1ccccc1SCc1cccc2c(=O)c3ccc(Cl)cc3oc12 | > 50 µM (inactive) | > 50 µM (inactive) | 10.7 µM (inactive) |  |  |  | > 50 µM (inactive) | 19.5 µM (inactive) | > 50 µM (inactive) | 41.5 µM (inactive) | > 50 µM (inactive) | 27.7 µM (inactive) | 20.2 µM (inactive) | 48.8 µM (inactive) | 36.1 µM (inactive) | > 50 µM (inactive) | > 50 | > 50 µM (inactive) | > 50 µM (inactive)
6 | CCOC(=O)c1cn(C)nc1N/C(C)=C\C(=O)c1ccccc1 |  | > 100 µM (inactive) | > 100 µM (inactive) | > 100 µM (inactive) |  | > 100 µM (inactive) | > 100 µM (inactive) | 83.2 µM (inactive) |  | > 100 µM (inactive) | > 100 µM (inactive) | > 100 µM (inactive) | > 100 µM (inactive) | > 100 µM (inactive) |  | > 100 µM (inactive) | > 100 | > 100 µM (inactive) | 90.8 µM (inactive)
7 | CCOC(=O)C1(C)CCCc2sc(N)c(C#N)c21 (stereo unspecified) | > 100 µM (inactive) | > 100 µM (inactive) | > 100 µM (inactive) | > 100 µM (inactive) | > 100 µM (inactive) |  |  |  | > 100 µM (inactive) |  | > 100 µM (inactive) | > 100 µM (inactive) |  | > 100 µM (inactive) | > 100 µM (inactive) | > 100 µM (inactive) | > 100 |  | 
8 | Cn1c(COC(=O)NC2CCCCC2)c(COC(=O)NC2CCCCC2)c2ccc3cc(Cl)c(Cl)cc3c21 |  | 27.7 µM (inactive) | 6.43 µM (inactive) | 11.1 µM (inactive) | 6.12 µM (inactive) | 28.6 µM (inactive) | 15.1 µM (inactive) | 14.8 µM (inactive) | 12.6 µM (inactive) |  | 12.5 µM (inactive) | 3.61 µM (inactive) | 22.8 µM (inactive) | 16.4 µM (inactive) | 7.43 µM (inactive) | 16.5 µM (inactive) | 12.2 | 3.27 µM (inactive) | 13.6 µM (inactive)
